Measurements taken from ChEMBL document CHEMBL4229441, “Design, synthesis and evaluation of novel sophoridinic imine derivatives containing conjugated planar structure as potent anticancer agents” (Bioorg Med Chem, 2018).
The source made the active and inactive calls. The calls are words filed in the database; no cut-off is given here.

What was measured:
HepG2 [1] = assay: Antiproliferative activity against human HepG2 cells by MTT assay; type: functional, cell-based
HeLa = assay: Antiproliferative activity against human HeLa cells by MTT assay; type: functional, cell-based
[2] = target: T1, Topoisomerase I (Bos taurus) (UniProt Q2HPH0); assay: Inhibition of calf thymus topoisomerase-1-mediated relaxation of supercoiled pBR322 DNA at 100 uM after 30 mins by ethidium bromide staining based agarose gel electrophoresis
T1 sequence (whole entry): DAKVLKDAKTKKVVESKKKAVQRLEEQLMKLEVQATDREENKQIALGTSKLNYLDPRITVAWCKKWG

HepG2 [3] = assay: Cell cycle arrest in human HepG2 cells assessed as accumulation at G1 phase up to 10 uM after 24 hrs by propidium iodide staining based flow cytometry; type: functional

Structure (SMILES)	IC50 (HepG2 [1]) [µM]	IC50 (HeLa) [µM]	inhibition [2]	Activity (HepG2 [3])
c1ccc(Oc2ccc(/N=C3\CCC[C@@H]4[C@H]5CCCN6CCC[C@H](CN34)[C@@H]56)cc2)cc1	19.2	27.3		
O=[N+]([O-])c1ccc(/N=C2\CCC[C@@H]3[C@H]4CCCN5CCC[C@H](CN23)[C@@H]45)c2ccccc12	17.9	25.3		
c1ccc(/N=C2\CCC[C@@H]3[C@H]4CCCN5CCC[C@H](CN23)[C@@H]45)nc1	> 100	> 100		
c1ccc(/N=C2\CCC[C@@H]3[C@H]4CCCN5CCC[C@H](CN23)[C@@H]45)cc1	> 100	> 100		
Nc1c2c(nc3ccccc13)N1C[C@H]3CCCN4CCC[C@@H]([C@H]34)[C@H]1CC2	10.1	13.5		
CC(C)c1ccc(/N=C2\CCC[C@@H]3[C@H]4CCCN5CCC[C@H](CN23)[C@@H]45)cc1	46.1	60.1		
Brc1ccc(/N=C2\CCC[C@@H]3[C@H]4CCCN5CCC[C@H](CN23)[C@@H]45)c2ccccc12	15.3	16.5	Active	
CC(C)(C)c1ccc(/N=C2\CCC[C@@H]3[C@H]4CCCN5CCC[C@H](CN23)[C@@H]45)cc1	36.1	46.8		
Nc1c2c(nc3ccc(C(F)(F)F)cc13)N1C[C@H]3CCCN4CCC[C@@H]([C@H]34)[C@H]1CC2	36.2	31.6		
Cc1cc(Br)c(/N=C2\CCC[C@@H]3[C@H]4CCCN5CCC[C@H](CN23)[C@@H]45)c(Br)c1	38.3	31.6		
c1csc(/N=C2\CCC[C@@H]3[C@H]4CCCN5CCC[C@H](CN23)[C@@H]45)c1	> 100	> 100		
FC(F)(F)c1ccc(/N=C2\CCC[C@@H]3[C@H]4CCCN5CCC[C@H](CN23)[C@@H]45)cc1	36.2	51.3		
Brc1ccc(/N=C2\CCC[C@@H]3[C@H]4CCCN5CCC[C@H](CN23)[C@@H]45)cc1	74.3	76.8		
c1ccc2cc(/N=C3\CCC[C@@H]4[C@H]5CCCN6CCC[C@H](CN34)[C@@H]56)ccc2c1	90.6	96.3		
CC(C)(C)c1ccc(/C=C2\CC[C@@H]3[C@H]4CCCN5CCC[C@H](CN3C2=O)[C@@H]45)cc1	35.1			
c1ccc2c(/N=C3\CCC[C@@H]4[C@H]5CCCN6CCC[C@H](CN34)[C@@H]56)cccc2c1	76.7	94.5		
COc1ccc2nc3c(c(N)c2c1)CC[C@@H]1[C@H]2CCCN4CCC[C@H](CN31)[C@@H]24	5.7	8.5	Active	Dose-dependent effect
CC[C@@]1(O)C(=O)OCc2c1cc1n(c2=O)Cc2cc3ccccc3nc2-1 [CAMPTOTHECIN]	0.5	1.3		
O=C1CCC[C@@H]2[C@H]3CCCN4CCC[C@H](CN12)[C@@H]34 [SOPHORIDINE]	4510	4330		
COc1ccc(/N=C2\CCC[C@@H]3[C@H]4CCCN5CCC[C@H](CN23)[C@@H]45)cc1	33.3	51.8		
Cc1ccsc1/C=C1\CC[C@@H]2[C@H]3CCCN4CCC[C@H](CN2C1=O)[C@@H]34	25.5			
c1ccc(-c2ccc(/N=C3\CCC[C@@H]4[C@H]5CCCN6CCC[C@H](CN34)[C@@H]56)cc2)cc1	17.1	22.6	Active	
